Test results as given in patent publication US20120142767A1, “PINE PCO ESTER COSMETIC COMPOSITION” (ACTION PIN, priority 2009, published 2012).
Where “and” joins values, the source holds several entries; their conditions need not be identical. Equal values may be shown once.

Key:
[1] = system: MDA (malonaldehyde); assay: Assay of MDA (lipid peroxidation) in the culture medium of UVB-irradiated reconstructed human epidermis; assay type: cell-based; details: for MDA / MDA (μM/AU MTT): vitamin E 200 μg/mL + UVB, 3 epidermises and mean ± SD
Experimental: A human epidermis is reconstructed in vitro in culture inserts. A paper filter disc on which the substance to be tested (preventive treatment) is deposited on the “stratum corneum”. After 24 hours, it is irradiated by UVBs and then the substance to be tested (curative treatment) is again applied. an assay of MDA (malonaldehyde) (a terminal product formed during the lipid peroxidation process induced by the formation of radical species, or species activated by oxygen). […] 3 series of substance to be tested (5, 50 and 500 μg/mL) each consisting of 3 epidermises (to be irradiated). Next, the paper filter disks are carefully withdrawn and all the series are irradiated with UVBs (0.6 J/cm^2) (Spectroline model X-15N/F, λ=312 nm) except for the series corresponding to the absolute negative control and to the solvent control. The curative treatment is then applied as described above for the preventive treatment over a period of 24 hours, except for the positive control series 2 (indomethacin). […] dilutions are carried out between 0.1 and 10 μM (0.1-1-2.5-5 and 10 μM). 500 μL of culture medium (or 500 μL of a standard range) are energetically mixed in a vortex mixer, with 1 mL of a <<TCA, TBA, HCl>> solution ([…] of TCA trichloroacetic acid, 0.375% (w/v) of TBA (2-thiobarbituric acid), 0.25 M of HCl) (heated for 15 minutes at 100° C. in order to dissolve the TBA, and then left to cool). The mixture is incubated for 15 minutes at 100° C. and the OD is measured at λ=535 nm against a blank formed with the <<TCA, TBA, HCl>> solution.

[2] = system: reconstructed human epidermis; assay: Cytotoxicity (MTT) on reconstructed human epidermis irradiated by UVBs; assay type: cell-based; details: for AU (MTT): 3 epidermises and mean ± SD
Experimental: A human epidermis is reconstructed in vitro in culture inserts. A paper filter disc on which the substance to be tested (preventive treatment) is deposited on the “stratum corneum”. After 24 hours, it is irradiated by UVBs and then the substance to be tested (curative treatment) is again applied. a study of cytoxicity (MTT), The keratinocytes sites are sown at a density of 100×10^3 cells/cm^2 in inserts, the bottom of which consists of a polycarbonate membrane (porosity 0.4 μm-1 cm^2). […] 3 series of substance to be tested (5, 50 and 500 μg/mL) each consisting of 3 epidermises (to be irradiated). Next, the paper filter disks are carefully withdrawn and all the series are irradiated with UVBs (0.6 J/cm^2) (Spectroline model X-15N/F, λ=312 nm) except for the series corresponding to the absolute negative control and to the solvent control. The curative treatment is then applied as described above for the preventive treatment over a period of 24 hours, except for the positive control series 2 (indomethacin). The MTT test is carried out according to the conditions described in the publications: […]. and Berg K. Re-examination and further development of a precise and rapid dye method for measuring cell growth/cell kill. J. Immunol. Methods. 1989, 119, 203; and Mosmann T., Rapid colorimetric assay for cellular growth and survival: Application to proliferation and cytotoxic assays, J. Immunol. Methods. 1983, 65, 55-63. At the end of the selected incubation time, the Whatman paper disk is carefully picked up, the <<stratum corneum>> is rinsed and the porous membrane bearing the epidermal layer is detached from the insert with a bistoury. The culture medium are used for assaying IL-1α and MDA. […] For each layer, 200 μL of the obtained solution are pipeted into an 96 well plate for carrying out spectrometry with a plate reader (FL600-BIO-TEK) at λ=540 nm.

[3] = system: normal human fibroblasts; assay: Cytotoxic activity on a monolayer of human fibroblasts (MTT, 24 hours); details: positive control (SDS), concentration not given
Experimental: After applying the product on the cells for 24 hours, cell viability is evaluated by measuring the activity of the mitochondrial succinate dehydrogenase of living cells. This enzyme transforms MTT (3(4,5-diméthylthiazol-2-yl)-2,5-diphenyltetrazolium bromide) into blue formazan crystals. After dissolution of these crystals, a spectrophotometric read-out is performed. The measured absorbancies are proportional to the number of living cells.
The cells used are fibroblast from human skin tissue (child foreskin) in passage 1.
Six dilutions of each sample, prepared in an culture medium with 0.005% of between 60 and 0.05% of cotton oil, are tested in an amount of 5 test wells per concentration. The reference elements are tested on 5 wells.
The absorbance is measured at 540 nm. The results are expressed as a mortality percentage compared with the negative control.

[4] = system: IL-1α; assay: Assay of IL-1α in the culture medium of UVB-irradiated reconstructed human epidermis; assay type: cell-based; details: indomethacin 3 hours before irradiation, not statistically significant
Experimental: A human epidermis is reconstructed in vitro in culture inserts. A paper filter disc on which the substance to be tested (preventive treatment) is deposited on the “stratum corneum”. After 24 hours, it is irradiated by UVBs and then the substance to be tested (curative treatment) is again applied. an assay of IL-1α, a pro-inflammatory mediator in the culture medium, […] 3 series of substance to be tested (5, 50 and 500 μg/mL) each consisting of 3 epidermises (to be irradiated). Next, the paper filter disks are carefully withdrawn and all the series are irradiated with UVBs (0.6 J/cm^2) (Spectroline model X-15N/F, λ=312 nm) except for the series corresponding to the absolute negative control and to the solvent control. The curative treatment is then applied as described above for the preventive treatment over a period of 24 hours, except for the positive control series 2 (indomethacin). The assay of IL-1α is carried out in the sampled culture media (n=3), diluted to 1/10th and to 1/20th according to the procedure described in the assay kit.

[5] = system: normal human fibroblasts; assay: Synthesis of collagen by human fibroblasts (Sircol assay); assay type: cell-based; set-up: stimulation of collagen at the cell matrix: dose or concentration left out as unconfirmed
Experimental: The goal of this study is to evaluate the effect of the test element on the synthesis of collagen after 24-hour contact with a monolayer of normal human fibroblasts.
The cells used are fibroblasts from a human child skin tissue (child) on passage 2.
The cells are sown with 50,000 cells/cm^2. After 24 hours of culture, 37° C., 5% CO2, they are incubated with the product under investigation and the reference element for 24 hours in a 1% FCS medium.
The collagen is assayed in the extra cellular matrix and in the culture medium by means of the assay box Sircol, Biocolor Ltd, Ireland, according to the procedure described in the box.
The assay is carried out with the red colouring agent Sirius (Direct Red 80) which has specific affinity for the trip helix structure (Gly-X-Y)n of native collagen.
The absorbance of the dye-collagen complex is read out with the spectrophotometer at 540 nm.
A standard curve is produced between 0 and 50 μg/mL of collagen of type I.
The collagen concentration is expressed in pg of collagen /ml/U MTT in the extra cellular matrix and in the culture medium.

vitamin E was tested, and the “MDA” value [1] was 0.422 µM and 0.423 µM and 0.484 µM, the “MDA (μM/AU MTT)” value [1] was 1.715 μM/AU MTT and 1.147 μM/AU MTT and 1.359 μM/AU MTT and the “MDA” value ([1]; mean ± SD of three epidermises) was 0.443 ± 0.035 µM. The “MDA (μM/AU MTT)” value ([1]; mean ± SD of three epidermises) was 1.407 ± 0.287 μM/AU MTT, the “increase in the MDA level” value ([1]; vitamin E before and after irradiation, with respect to the non-irradiated absolute negative control, P<0.05) was 58% and the cytotoxic effect [2] was 13%. For the same compound, the “AU (MTT)” value ([2]; vitamin E 200 μg/mL + UVB) was 0.246 AU and 0.369 AU and 0.356 AU.
With `CCCCCCCCCCCCOS(=O)(=O)[O-].[Na+]` [Positive control, SDS] the “UA MTT” value [3] was 0.065 UA.
For `COc1ccc2c(c1)c(CC(=O)O)c(C)n2C(=O)c1ccc(Cl)cc1` [Indomethacin, indomethacin], the “inhibition of synthesis and secretion of IL-1α in the culture medium” value [4] was −20%, the “AU (MTT)” value ([2]; indomethacin 10 μg/mL, 3 hours before UVB) was 0.214 AU and 0.288 AU and 0.232 AU and the “protective effect as regards cytotoxicity” value ([2]; indomethacin for 3 hours before irradiation) was “no protective effect”.
“TGF β1: positive control of the collagen synthesis test” was tested, and the “stimulation of collagen at the cell matrix” value ([5]; TGF β1) was 88%, the “Assay of collagen, Cell matrix” value ([5]; TGF β1 (100 ng/ml)) was 9.74 μg/wells and the “Assay of collagen, Culture medium” value ([5]; TGF β1 (100 ng/ml)) was 11.36 μg/wells. The “Assay of collagen, TOTAL” value ([5]; TGF β1 (100 ng/ml)) was 21.09 μg/wells, the “Collagen ratio, Cell matrix” value ([5]; TGF β1 (100 ng/ml)) was 10.42 μg/wells/U MTT and the “Collagen ratio, Culture medium” value ([5]; TGF β1 (100 ng/ml)) was 12.15 μg/wells/U MTT. For the same compound, the “Collagen ratio, TOTAL” value ([5]; TGF β1 (100 ng/ml)) was 22.57 μg/wells/U MTT, the “Stimulation of collagen excreted into the culture medium” value ([5]; TGF β1 (100 ng/ml)) was 12% and the “Stimulation of collagen produced in the cell matrix” value ([5]; TGF β1 (100 ng/ml)) was 88%. The “Stimulation of the synthesis of total collagen” value ([5]; TGF β1 (100 ng/ml)) was 38% and the “stimulation of total synthesis of collagen” value ([5]; TGF β1 at 10 μg/mL) was 38%.
